Each structure is given as a SMILES string.

One experiment has as its target DAGLα (hDAGLα-FLAG) (Homo sapiens (Human), UniProt Q9Y4D2). Kind of experiment: competitive ABPP, membrane proteome of transfected HEK293T cells. The experiment is classed as biochemical. As to conditions: for inhibition at 0.4 µM: read-out: DAGLα % inh. 0.4 μM; for inhibition at 0.0032 µM: 3.2 nM, read-out: DAGLα % inh. 3.2 nM. On the procedure:
(§1) Compounds 19 and 20 were tested for in vitro inhibition of DAGLα and DAGLβ as measured by competitive activity-based protein profiling (ABPP) of […] using a HT-01 probe (targets DAGLα and DAGLβ) and a FP-Rh probe (targets serine hydrolases).
(§2) Briefly, membrane proteome (1 mg/ml, 20 μL) was prepared from HEK293T cells (transiently transfected with hDAGLα-FLAG or hDAGLα-S472A-FLAG, hDAGLβ-FLAG or hDAGLβ-S443A-FLAG) as described in Example 16. The proteome was incubated at room temperature with vehicle (DMSO) or compound in 0.5 μL DMSO for 30 min. The membrane proteome sample was subsequently treated for 30 min with HT-01 probe (1 μM) or FP-Rh probe (1 μM). The reactions were quenched with 10 μL 3× Laemmli sample buffer (final concentrations: 60 mM Tris-Cl pH 6.8, 2% (w/v) SDS, 10% (v/v) glycerol, 5% (v/v) (3-mercaptoethanol, 0.01% (v/v) bromophenol blue). The samples were directly loaded and resolved on SDS page gel (10% acrylamide). The gels were scanned using a ChemiDoc MP system (Cy3 settings, 605/50 filter).
(§3) The resolved proteins were transferred from the gels to a polyvinyldifluoride membrane for Western Blotting using a Trans-Blot® Turbo (BioRad). FLAG-tagged enzymes were stained using rabbit anti-FLAG as primary antibody, and goat-anti-rabbit HRP as secondary antibody. The blot was developed in the dark using a 10 mL luminal solution, 100 μL ECL enhancer and 3 μL H2O2. Chemiluminescence was visualized using a ChemiDoc XRS (BioRad).
(§4) The percentage of DAGL activity remaining in the assayed samples was determined by measuring the integrated optical intensity of the fluorescent protein bands of the Western Blot using image lab 4.1. The relative intensity was compared to the vehicle (DMSO) treated proteins, which were set to 100%. IC50 values were determined by plotting a log(inhibitor) vs. normalized response (Variable slope) dose-response curve generated using Prism software (GraphPad).

Another experiment has as its target DAGLβ (hDAGLβ-FLAG) (Homo sapiens (Human), UniProt Q8NCG7). The description is as above. It is filed as biochemical. As to conditions: for inhibition at 0.4 µM: read-out: DAGLβ % inh. 0.4 μM; for inhibition at 0.0032 µM: read-out: DAGLβ % inh. 3.2 nM. On the procedure:
as §1, §2, §3, §4

DAGLα (hDAGLα-FLAG), sequence (Q9Y4D2 whole entry): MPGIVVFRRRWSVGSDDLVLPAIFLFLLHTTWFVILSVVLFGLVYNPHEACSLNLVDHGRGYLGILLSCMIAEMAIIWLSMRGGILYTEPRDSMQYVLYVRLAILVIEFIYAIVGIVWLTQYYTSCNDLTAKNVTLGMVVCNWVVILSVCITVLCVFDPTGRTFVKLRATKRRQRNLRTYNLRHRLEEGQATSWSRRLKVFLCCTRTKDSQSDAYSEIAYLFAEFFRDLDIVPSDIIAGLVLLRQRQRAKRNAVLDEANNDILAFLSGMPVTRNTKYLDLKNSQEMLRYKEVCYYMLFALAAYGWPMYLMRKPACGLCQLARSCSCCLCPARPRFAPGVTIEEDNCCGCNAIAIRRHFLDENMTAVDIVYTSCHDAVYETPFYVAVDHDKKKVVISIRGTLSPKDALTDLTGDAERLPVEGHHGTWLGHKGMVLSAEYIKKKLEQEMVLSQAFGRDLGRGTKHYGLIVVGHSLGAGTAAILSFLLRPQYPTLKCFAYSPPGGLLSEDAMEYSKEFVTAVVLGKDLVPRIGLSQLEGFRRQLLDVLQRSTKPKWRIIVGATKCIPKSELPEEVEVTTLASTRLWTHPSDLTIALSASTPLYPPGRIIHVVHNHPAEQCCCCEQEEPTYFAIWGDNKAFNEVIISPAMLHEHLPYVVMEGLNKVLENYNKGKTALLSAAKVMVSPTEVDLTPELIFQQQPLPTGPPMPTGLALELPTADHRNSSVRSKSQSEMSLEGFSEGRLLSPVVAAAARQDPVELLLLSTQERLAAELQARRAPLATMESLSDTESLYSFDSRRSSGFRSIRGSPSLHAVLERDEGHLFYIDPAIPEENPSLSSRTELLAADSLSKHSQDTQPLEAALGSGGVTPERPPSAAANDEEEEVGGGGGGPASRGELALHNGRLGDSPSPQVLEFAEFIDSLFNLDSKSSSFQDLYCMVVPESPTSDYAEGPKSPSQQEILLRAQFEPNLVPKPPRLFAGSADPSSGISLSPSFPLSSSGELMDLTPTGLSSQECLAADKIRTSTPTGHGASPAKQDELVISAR
DAGLβ (hDAGLβ-FLAG), sequence (Q8NCG7 whole entry): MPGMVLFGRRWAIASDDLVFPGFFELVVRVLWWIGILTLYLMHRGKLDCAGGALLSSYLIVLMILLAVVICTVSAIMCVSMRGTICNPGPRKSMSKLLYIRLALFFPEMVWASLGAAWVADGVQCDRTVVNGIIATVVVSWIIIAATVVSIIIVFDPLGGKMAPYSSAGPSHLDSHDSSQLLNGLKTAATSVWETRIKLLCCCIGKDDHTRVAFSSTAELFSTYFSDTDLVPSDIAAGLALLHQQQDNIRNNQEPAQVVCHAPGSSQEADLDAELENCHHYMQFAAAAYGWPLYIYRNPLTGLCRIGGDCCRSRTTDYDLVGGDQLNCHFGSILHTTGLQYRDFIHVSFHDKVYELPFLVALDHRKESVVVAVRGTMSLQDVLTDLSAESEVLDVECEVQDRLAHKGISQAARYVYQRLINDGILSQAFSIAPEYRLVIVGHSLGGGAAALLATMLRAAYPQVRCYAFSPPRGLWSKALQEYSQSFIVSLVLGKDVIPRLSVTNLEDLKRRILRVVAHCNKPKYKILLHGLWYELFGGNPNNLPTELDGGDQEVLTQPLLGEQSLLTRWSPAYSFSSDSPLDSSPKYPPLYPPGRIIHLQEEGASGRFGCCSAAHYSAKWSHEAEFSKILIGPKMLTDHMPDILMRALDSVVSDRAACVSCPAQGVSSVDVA

As for `O=C(N1CCCCC1Cc1ccccc1)n1cc(-c2ccc(CN3CCOCC3)cc2)nn1` (stereo not shown) [Compound 94, (2-benzylpiperidin-1-yl)(4-(4-(morpholinomethyl)phenyl)-1H-1,2,3-triazol-1-yl)methanone], the IC50 on DAGLα (hDAGLα-FLAG) (read-out: DAGLα IC50) is at most 400 nM; on DAGLβ (hDAGLβ-FLAG) (read-out: DAGLβ IC50), 400 to 2000 nM.

With `COC(=O)N1CCN(C(=O)n2cc(-c3ccc(OC(F)(F)F)cc3)nn2)C(Cc2ccccc2)C1` (stereo not shown) [Compound 95, methyl 3-benzyl-4-(4-(4-(trifluoromethoxy)phenyl)-1H-1,2,3-triazole-1-carbonyl)piperazine-1-carboxylate], the inhibition at 0.4 µM was at least 75% on DAGLα (hDAGLα-FLAG) and 25 to 50% at DAGLβ (hDAGLβ-FLAG).

With `CC(C)OC(=O)N1CCN(C(=O)n2cc(-c3ccc(OC(F)(F)F)cc3)nn2)C(Cc2ccccc2)C1` (stereo not shown) [Compound 96, isopropyl 3-benzyl-4-(4-(4-(trifluoromethoxy)phenyl)-1H-1,2,3-triazole-1-carbonyl)piperazine-1-carboxylate], the inhibition at 0.4 µM at DAGLα (hDAGLα-FLAG) was at least 75%; at DAGLβ (hDAGLβ-FLAG) it was 50 to 75%.

In the case of `CC(C)OC(=O)N1CCN(C(=O)n2ncc(-c3ccc(OC(F)(F)F)cc3)n2)C(Cc2ccccc2)C1` (stereo not shown) [Compound 97, isopropyl 3-benzyl-4-(4-(4-(trifluoromethoxy)phenyl)-2H-1,2,3-triazole-2-carbonyl)piperazine-1-carboxylate], the inhibition at 0.4 µM at DAGLα (hDAGLα-FLAG) is 25 to 50%; on DAGLβ (hDAGLβ-FLAG), 0 to 25%.

In the case of `COC(=O)N1CCN(C(=O)n2ncc(-c3ccc(OC(F)(F)F)cc3)n2)C(Cc2ccccc2)C1` (stereo not shown) [Compound 98, methyl 3-benzyl-4-(4-(4-(trifluoromethoxy)phenyl)-2H-1,2,3-triazole-2-carbonyl)piperazine-1-carboxylate], the inhibition at 0.4 µM at DAGLα (hDAGLα-FLAG) and on DAGLβ (hDAGLβ-FLAG) was 0 to 25% throughout.

Take `CC(C)(C)OC(=O)N1CCN(C(=O)n2ncc(-c3ccc(OC(F)(F)F)cc3)n2)C(Cc2ccccc2)C1` (stereo not shown) [Compound 99, tert-butyl 3-benzyl-4-(4-(4-(trifluoromethoxy)phenyl)-2H-1,2,3-triazole-2-carbonyl)piperazine-1-carboxylate]: the inhibition at 0.4 µM at DAGLα (hDAGLα-FLAG) and at DAGLβ (hDAGLβ-FLAG) was 0 to 25% each time.

`CC(C)(C)OC(=O)N1CCN(C(=O)n2cc(-c3ccc(OC(F)(F)F)cc3)nn2)[C@H](Cc2ccccc2)C1` [Compound 100, tert-butyl (R)-3-benzyl-4-(4-(4-(trifluoromethoxy)phenyl)-1H-1,2,3-triazole-1-carbonyl)piperazine-1-carboxylate]: the inhibition at 0.4 µM at DAGLα (hDAGLα-FLAG) and on DAGLβ (hDAGLβ-FLAG) was at least 75% in each case.

Consider `CC(C)(C)OC(=O)N1CCN(C(=O)n2cc(-c3ccc(OC(F)(F)F)cc3)nn2)[C@@H](Cc2ccccc2)C1` [Compound 102, tert-butyl (S)-3-benzyl-4-(4-(4-(trifluoromethoxy)phenyl)-1H-1,2,3-triazole-1-carbonyl)piperazine-1-carboxylate], for which the inhibition at 0.4 µM on DAGLα (hDAGLα-FLAG) and on DAGLβ (hDAGLβ-FLAG) was at least 75% throughout.

Consider `O=C(N1CCCC[C@@H]1Cc1ccccc1)n1ncc(-c2ccc(OC(F)(F)F)cc2)n1` [Compound 104, (R)-(2-benzylpiperidin-1-yl)(4-(4-(trifluoromethoxy)phenyl)-2H-1,2,3-triazol-2-yl)methanone], for which the inhibition at 0.0032 µM at DAGLα (hDAGLα-FLAG) and on DAGLβ (hDAGLβ-FLAG) was 0 to 25% throughout.

With `O=C(N1CCCC[C@H]1Cc1ccccc1)n1ncc(-c2ccc(OC(F)(F)F)cc2)n1` [Compound 105, (S)-(2-benzylpiperidin-1-yl)(4-(4-(trifluoromethoxy)phenyl)-2H-1,2,3-triazol-2-yl)methanone], the inhibition at 0.0032 µM at DAGLα (hDAGLα-FLAG) and at DAGLβ (hDAGLβ-FLAG) was 0 to 25% each time.

Regarding `O=C(N1CCC=C[C@@H]1COCc1ccccc1)n1cc(-c2ccc(OC(F)(F)F)cc2)nn1` [Compound 106, (R)-(6-((benzyloxy)methyl)-3,6-dihydropyridin-1(2H)-yl)(4-(4-(trifluoromethoxy)phenyl)-1H-1,2,3-triazol-1-yl)methanone], the inhibition at 0.0032 µM at DAGLα (hDAGLα-FLAG) and on DAGLβ (hDAGLβ-FLAG) was 0 to 25% each time.

Regarding `O=C(N1CCC=C[C@@H]1COCc1ccccc1)n1ncc(-c2ccc(OC(F)(F)F)cc2)n1` [Compound 107, (R)-(6-((benzyloxy)methyl)-3,6-dihydropyridin-1(2H)-yl)(4-(4-(trifluoromethoxy)phenyl)-2H-1,2,3-triazol-2-yl)methanone], the inhibition at 0.0032 µM at DAGLα (hDAGLα-FLAG) and on DAGLβ (hDAGLβ-FLAG) was 0 to 25% throughout.

`O=C(N1CCC=C[C@H]1COCc1ccccc1)n1cc(-c2ccc(OC(F)(F)F)cc2)nn1` [Compound 108, (S)-(6-((benzyloxy)methyl)-3,6-dihydropyridin-1(2H)-yl)(4-(4-(trifluoromethoxy)phenyl)-1H-1,2,3-triazol-1-yl)methanone]: the inhibition at 0.0032 µM at DAGLα (hDAGLα-FLAG) and on DAGLβ (hDAGLβ-FLAG) was 0 to 25% in each case.

Consider `O=C(N1CCC=C[C@H]1COCc1ccccc1)n1ncc(-c2ccc(OC(F)(F)F)cc2)n1` [Compound 109, (S)-(6-((benzyloxy)methyl)-3,6-dihydropyridin-1(2H)-yl)(4-(4-(trifluoromethoxy)phenyl)-2H-1,2,3-triazol-2-yl)methanone], for which the inhibition at 0.0032 µM on DAGLα (hDAGLα-FLAG) and on DAGLβ (hDAGLβ-FLAG) was 0 to 25% in each case.

Take `O=C(N1CCCCC1COc1ccccc1)n1cc(-c2ccc(OC(F)(F)F)cc2)nn1` (stereo not shown) [Compound 110, (2-(phenoxymethyl)piperidin-1-yl)(4-(4-(trifluoromethoxy)phenyl)-1H-1,2,3-triazol-1-yl)methanone]: the inhibition at 0.0032 µM on DAGLα (hDAGLα-FLAG) and on DAGLβ (hDAGLβ-FLAG) was 0 to 25% throughout.

As to `O=C(N1CCCCC1COc1ccccc1)n1ncc(-c2ccc(OC(F)(F)F)cc2)n1` (stereo not shown) [Compound 111, (2-(phenoxymethyl)piperidin-1-yl)(4-(4-(trifluoromethoxy)phenyl)-2H-1,2,3-triazol-2-yl)methanone], the inhibition at 0.0032 µM on DAGLα (hDAGLα-FLAG) and on DAGLβ (hDAGLβ-FLAG) was 0 to 25% each time.

Turning to `O=C(N1C[C@H](O)C=C[C@@H]1Cc1ccccc1)n1cc(-c2ccc(OC(F)(F)F)cc2)nn1` [Compound 112, ((3R,6S)-6-benzyl-3-hydroxy-3,6-dihydropyridin-1(2H)-yl)(4-(4-(trifluoromethoxy)phenyl)-1H-1,2,3-triazol-1-yl)methanone], the inhibition at 0.0032 µM on DAGLα (hDAGLα-FLAG) and at DAGLβ (hDAGLβ-FLAG) was 0 to 25% in each case.

Consider `O=C(N1C[C@H](O)C=C[C@@H]1Cc1ccccc1)n1ncc(-c2ccc(OC(F)(F)F)cc2)n1` [Compound 113, ((3R,6S)-6-benzyl-3-hydroxy-3,6-dihydropyridin-1(2H)-yl)(4-(4-(trifluoromethoxy)phenyl)-2H-1,2,3-triazol-2-yl)methanone], for which the inhibition at 0.0032 µM on DAGLα (hDAGLα-FLAG) and on DAGLβ (hDAGLβ-FLAG) was 0 to 25% in each case.

Take `O=C(N1C[C@@H](O)C=C[C@@H]1Cc1ccccc1)n1cc(-c2ccc(OC(F)(F)F)cc2)nn1` [Compound 114, ((3S,6S)-6-benzyl-3-hydroxy-3,6-dihydropyridin-1(2H)-yl)(4-(4-(trifluoromethoxy)phenyl)-1H-1,2,3-triazol-1-yl)methanone]: the inhibition at 0.0032 µM on DAGLα (hDAGLα-FLAG) and on DAGLβ (hDAGLβ-FLAG) was 0 to 25% in each case.

For the compound `O=C(N1C[C@@H](O)C=C[C@@H]1Cc1ccccc1)n1ncc(-c2ccc(OC(F)(F)F)cc2)n1` [Compound 115, ((3S,6S)-6-benzyl-3-hydroxy-3,6-dihydropyridin-1(2H)-yl)(4-(4-(trifluoromethoxy)phenyl)-2H-1,2,3-triazol-1-yl)methanone], the inhibition at 0.0032 µM on DAGLα (hDAGLα-FLAG) and on DAGLβ (hDAGLβ-FLAG) was 0 to 25% each time.

As to `CO[C@@H]1CC[C@H](Cc2ccccc2)N(C(=O)n2cc(-c3ccc(OC(F)(F)F)cc3)nn2)C1` [Compound 116, ((2R,5R)-2-benzyl-5-methoxypiperidin-1-yl)(4-(4-(trifluoromethoxy)phenyl)-1H-1,2,3-triazol-1-yl)methanone], the inhibition at 0.0032 µM at DAGLα (hDAGLα-FLAG) was 25 to 50%; on DAGLβ (hDAGLβ-FLAG) it was 0 to 25%.

In the case of `CO[C@@H]1CC[C@H](Cc2ccccc2)N(C(=O)n2ncc(-c3ccc(OC(F)(F)F)cc3)n2)C1` [Compound 117, ((2R,5R)-2-benzyl-5-methoxypiperidin-1-yl)(4-(4-(trifluoromethoxy)phenyl)-2H-1,2,3-triazol-1-yl)methanone], the inhibition at 0.0032 µM on DAGLα (hDAGLα-FLAG) and on DAGLβ (hDAGLβ-FLAG) was 0 to 25% throughout.

Take `CO[C@H]1CC[C@H](Cc2ccccc2)N(C(=O)n2cc(-c3ccc(OC(F)(F)F)cc3)nn2)C1` [Compound 118, ((2R,5S)-2-benzyl-5-methoxypiperidin-1-yl)(4-(4-(trifluoromethoxy)phenyl)-1H-1,2,3-triazol-1-yl)methanone]: the inhibition at 0.0032 µM on DAGLα (hDAGLα-FLAG) lay within 25 to 50%; at DAGLβ (hDAGLβ-FLAG), 0 to 25%.

Broadly, the IC50 is the concentration that inhibits the measured activity by half.

The values above are taken from patent US10583137B2, “Triazole DAGLα inhibitors” (THE SCRIPPS RESEARCH INSTITUTE, priority 2015, dated 2020).
